Marks after values point to notes of the source that are not given here.
Assays:
[1] = system: normal helper/inducer TM3 cells; experiment: Immune reactivity of normal lymphocytes: tetanus toxoid-driven activation of clone TM3; type: cell-based; settings: 72 hours
Experimental: There was tested the effects of the various 2',3'-dideoxynucleosides on the antigen-specific and lectin-induced reactivity of normal lymphocytes in vitro (Table 2). There was used a normal clone (TM3)of tetanus-toxoid specific helper/inducer T-cells to monitor the effects of the compounds on antigen-driven activation and normal circulating lymphocytes to monitor effects on pokeweed mitogen and phytohaemagglutinin-driven activation. Concentrations of these compounds, including those that were 10- to 20-fold higher than those necessary to block the in vitro infectivity and cytopathic effect of HIV (HTLV-III/LAV) left the in vitro immune reactivity of normal lymphocytes basically intact.
^2 5 × 10^4 normal helper/inducer TM3 cells were stimulated
with tetanus toxoid (0.6 limiting flocculation units/ml) plus 10^5
irradiated (4,000 rad) autologous peripheral blood mononuclear cells (PBM
as a source of accessory cells and cultured for 72 hours in the presence
or absence of the 2',3dideoxynucleoside. After exposure to 0.5 uCi^3
Hthymidine or 1 uCi ^3 Huidine for the final 5 hours, cells were
harvested onto glass fibers and the incorporated radioactivity was
counted. Data are expressed as the arithmetic mean counts per minute
(×10^3) ± 1 standard deviation triplicate determinations.

[2] = system: PBM (peripheral blood mononuclear cells) stimulated with phytohaemagglutinin; experiment: Immune reactivity of normal lymphocytes: PBM + PHA; type: cell-based; settings: 72 hours
[3] = system: PBM (peripheral blood mononuclear cells) stimulated with pokeweed mitogen; experiment: Immune reactivity of normal lymphocytes: PBM + PWM; type: cell-based; settings: 72 hours
[4] = system: HSV-1; experiment: Antiviral activity against HSV-1 (first line); type: cell-based; settings: Human alphaherpesvirus 1; primary rabbit kidney cell cultures; first HSV-1 line; read-out: Minimal Inhibitory Concentration (required to reduce virus-induced cytopathogenicity by 50%)
[5] = system: HSV-1; experiment: Antiviral activity against HSV-1 (second line); type: cell-based; settings: Human alphaherpesvirus 1; primary rabbit kidney cell cultures; second HSV-1 line; read-out: Minimal Inhibitory Concentration (required to reduce virus-induced cytopathogenicity by 50%)
[6] = system: Vaccinia; experiment: microbe, parasite or virus in culture; type: cell-based; settings: Orthopoxvirus vaccinia, in Oryctolagus cuniculus, read-out: Minimal Inhibitory Concentration (required to reduce virus-induced cytopathogenicity by 50%)
[7] = system: Vesicular Stomatitis Virus; experiment: microbe, parasite or virus in culture; type: cell-based; settings: HeLa, read-out: Minimal Inhibitory Concentration (required to reduce virus-induced cytopathogenicity by 50%)
[8] = system: Reovirus-1; experiment: Antiviral activity against Reovirus-1; type: cell-based; settings: Vero cell cultures; read-out: Minimal Inhibitory Concentration (required to reduce virus-induced cytopathogenicity by 50%)
[9] = system: Sindbis Virus; experiment: Antiviral activity against Sindbis Virus; type: cell-based; settings: Vero cell cultures, read-out: Minimal Inhibitory Concentration (required to reduce virus-induced cytopathogenicity by 50%)
Source text: (§1) The antiviral activity of the dideoxynucleosides of the present invention against a variety of viruses were compared. The results, shown in Table 3, indicate that the compositions of the present invention are selectively effective against HIV virus.
(§2) ^1 Required to reduce virusinduced cytopathogenicity by 50%.
(§3) ^4 Antiviral activity measured in Vero cell cultures.

[10] = system: Coxsackie Virus B4; experiment: Antiviral activity against Coxsackie Virus B4; type: cell-based; settings: Enterovirus B, Hela cell cultures, read-out: Minimal Inhibitory Concentration (required to reduce virus-induced cytopathogenicity by 50%)
[11] = system: Semliki Forest Virus; experiment: Antiviral activity against Semliki Forest Virus; type: cell-based; settings: Vero cell cultures, read-out: Minimal Inhibitory Concentration (required to reduce virus-induced cytopathogenicity by 50%)
Source text: as §1, §2, §3

[12] = system: Parainfluenza Virus-3; experiment: Antiviral activity against Parainfluenza Virus-3; type: cell-based; settings: Vero; read-out: Minimal Inhibitory Concentration (required to reduce virus-induced cytopathogenicity by 50%)
[13] = system: Polio Virus-1; experiment: organism not typed; type: cell-based; settings: HeLa, read-out: Minimal Inhibitory Concentration (required to reduce virus-induced cytopathogenicity by 50%)
[14] = system: HTLV-III; experiment: Antiviral activity against HTLV-III; type: cell-based, human immunodeficiency virus (HIV); settings: for IC50: Human immunodeficiency virus 1, ATH-8, T4+ human T cell (ATH8) cultures, read-out: Minimal Inhibitory Concentration (required to reduce virus-induced cytopathogenicity by 50%); for activity against HIV: Table 3 note
Source text: as §1, §2
^5 Antiviral activity measured in T4+ human T cell (ATH8) cultures.

[15] = system: DNA and RNA viruses; experiment: Antiviral activity against a variety of viruses (Table 3 overall); type: cell-based; settings: Table 3 note
Source text: as §1, §2

[16] = system: cellular DNA polymerase beta; settings: cited from earlier work
[17] = system: cellular DNA polymerase gamma; settings: cited from earlier work
[18] = system: viral reverse transcriptase; settings: cited from earlier work
[19] = system: mammalian DNA polymerase alpha; settings: cited from earlier work
[20] = system: HIV (HTLV-III/LAV), ATH8 cells; experiment: Inhibition of cytopathic effect of HIV (HTLV-III/LAV) against ATH8 cells; type: cell-based, human immunodeficiency virus (HIV)
[21] = dog, in vivo
[22] = system: HIV (HTLV-III/LAV) p24 gag protein, H9 cells; experiment: Inhibition of infectivity and replication of HIV (p24 gag protein expression) in H9 cells; type: cell-based, human immunodeficiency virus (HIV)
[23] = 1 uM, 3H-uridine incorporation, mean ± 1 SD, triplicate
[24] = 10 uM, 3H-uridine incorporation, mean ± 1 SD, triplicate
[25] = 10 uM, 3H-thymidine incorporation, mean ± 1 SD, triplicate
[26] = 100 uM, 3H-thymidine incorporation, mean ± 1 SD, triplicate
[27] = 200 uM, 3H-uridine incorporation
[28] = 2,000 uM, 3H-uridine incorporation, mean ± 1 SD, triplicate

| SMILES | IC50 [4] [µM] | IC50 [5] [µM] | IC50 [6] [µM] | IC50 [7] [µM] | IC50 [8] [µM] | IC50 [9] [µM] | IC50 [10] [µM] | IC50 [11] [µM] | IC50 [12] [µM] | IC50 [13] [µM] | IC50 [14] [µM] | activation of clone TM3, mean counts per minute [1, 25] | activation of clone TM3, mean counts per minute [1, 26] | activation of PBM + PHA, mean counts per minute [2, 25] | activation of PBM + PHA, mean counts per minute [2, 26] | activation of PBM + PWM, mean counts per minute [3, 25] | activation of PBM + PWM, mean counts per minute [3, 26] | other results |
| --- | --- | --- | --- | --- | --- | --- | --- | --- | --- | --- | --- | --- | --- | --- | --- | --- | --- | --- |
| Nc1ccn([C@H]2CC[C@@H](CO)O2)c(=O)n1 [2',3'-dideoxycytidine] | > 2000 | > 2000 | > 2000 | > 2000 | > 2000 | > 2000 | > 2000 | > 2000 | > 2000 | > 2000 | 0.3 |  |  |  |  |  |  | activation of clone TM3, mean counts per minute [1, 23]: 13 ± 1 counts per minute (×10^3); activation of clone TM3, mean counts per minute [1, 24]: 8 ± 1 counts per minute (×10^3); activation of PBM + PHA, mean counts per minute [2, 23]: 101 ± 1 counts per minute (×10^3); activation of PBM + PHA, mean counts per minute [2, 24]: 86 ± 3 counts per minute (×10^3); activation of PBM + PWM, mean counts per minute [3, 23]: 23 ± 3 counts per minute (×10^3); activation of PBM + PWM, mean counts per minute [3, 24]: 15 ± 3 counts per minute (×10^3); activity against HIV [14]: active against HIV; activity against the broad spectrum of DNA and RNA viruses [15]: not active |
| O=c1ccn([C@H]2CC[C@@H](CO)O2)c(=O)[nH]1 [Dideoxyuridine] | > 2000 | > 2000 | > 2000 | > 2000 | > 2000 | > 2000 | > 2000 | > 2000 | > 2000 | > 2000 | > 100 |  |  |  |  |  |  |  |
| Nc1nc2c(ncn2[C@H]2CC[C@@H](COP(=O)(O)OP(=O)(O)OP(=O)(O)O)O2)c(=O)[nH]1 |  |  |  |  |  |  |  |  |  |  |  |  |  |  |  |  |  | inhibition of cellular DNA polymerase beta [16]: can inhibit; inhibition of cellular DNA polymerase gamma [17]: can inhibit; inhibition of viral reverse transcriptase [18]: can inhibit; inhibition of mammalian DNA polymerase alpha [19]: but not mammalian DNA polymerase alpha |
| Nc1nc2c(ncn2[C@H]2CC[C@@H](CO)O2)c(=O)[nH]1 [2',3'-dideoxyguanosine] |  |  |  |  |  |  |  |  |  |  |  | 66 ± 5 counts per minute (×10^3) | 77 ± 1 counts per minute (×10^3) | 350 ± 4 counts per minute (×10^3) | 469 ± 9 counts per minute (×10^3) | 73 ± 8 counts per minute (×10^3) | 62 ± 5 counts per minute (×10^3) |  |
| OC[C@@H]1CC[C@H](n2cnc3c(O)ncnc32)O1 [2',3'-dideoxyinosine] |  |  |  |  |  |  |  |  |  |  |  | 62 ± 4 counts per minute (×10^3) | 81 ± 4 counts per minute (×10^3) | 298 ± 20 counts per minute (×10^3) | 355 ± 37 counts per minute (×10^3) | 61 ± 1 counts per minute (×10^3) | 62 ± 5 counts per minute (×10^3) | anti-retroviral activity against HIV [20]: have anti-retroviral activity against HIV |
| Nc1ncnc2c1ncn2[C@H]1CC[C@@H](CO)O1 [2',3'-dideoxyadenosine] | > 2000 | > 2000 | > 2000 | > 2000 | > 2000 | > 2000 | > 2000 | > 2000 | > 2000 | > 2000 | 5 | 86 ± 8 counts per minute (×10^3) | 67 ± 2 counts per minute (×10^3) | 289 ± 18 counts per minute (×10^3) | 314 ± 37 counts per minute (×10^3) | 63 ± 5 counts per minute (×10^3) | 57 ± 3 counts per minute (×10^3) | anti-retroviral activity against HIV [20]: have anti-retroviral activity against HIV; activity against HIV [14]: active against HIV; activity against the broad spectrum of DNA and RNA viruses [15]: not active; oral bioavailability ([21]; pH 7): 41.6%; conversion of orally administered ddA to ddI ([21]; po): converted almost entirely to 2',3'-dideoxyinosine (ddI) |
| Nc1ncnc2c1ncn2[C@H]1CC[C@@H](COP(=O)(O)OP(=O)(O)OP(=O)(O)O)O1 |  |  |  |  |  |  |  |  |  |  |  |  |  |  |  |  |  | inhibition of cellular DNA polymerase beta [16]: can inhibit; inhibition of cellular DNA polymerase gamma [17]: can inhibit; inhibition of viral reverse transcriptase [18]: can inhibit; inhibition of mammalian DNA polymerase alpha [19]: but not mammalian DNA polymerase alpha |
| Cc1cn([C@H]2CC[C@@H](CO)O2)c(=O)[nH]c1=O [2',3'-dideoxythymidine] | > 2000 | > 2000 | > 2000 | > 2000 | > 2000 | > 2000 | > 2000 | > 2000 | > 2000 | > 2000 | 200 |  |  |  |  |  |  | activation of clone TM3, mean counts per minute [1, 27]: 9 counts per minute (×10^3); activation of clone TM3, mean counts per minute [1, 28]: 9 counts per minute (×10^3); activation of PBM + PHA, mean counts per minute [2, 27]: 86 counts per minute (×10^3); activation of PBM + PHA, mean counts per minute [2, 28]: 77 counts per minute (×10^3); activation of PBM + PWM, mean counts per minute [3, 27]: 31 counts per minute (×10^3); activation of PBM + PWM, mean counts per minute [3, 28]: 31 counts per minute (×10^3); concentration required to exert a protective effect ([20]; ATH8 cells): relatively high concentrations; capacity to nullify the cytopathic effect of the virus ([20]; day 10 of culture, ATH8 cells): lost on day 10 of the culture; concentration required to mediate an anti-viral effect (p24 gag expression) [22]: relatively higher concentrations; resumption of viral replication ([22]; day 10 of culture): allowed a resumption of viral replication by day 10 of culture |

Reference: patent US5616566A, “Method of inhibiting HIV replication with 2',3'-dideoxyadenosine” (The United States of America as represented by the …, priority 1993, dated 1997)
